According to the NIST ThermoML archive (doi:10.1021/acs.jced.8b00591):

Experiment: xn = mol fraction of the nth substance listed
Details: 101.3 kPa, Liquid; for mass density: Vibrating tube method; for viscosity: Falling or rolling sphere viscometry

CCCC[n+]1ccn(C)c1.O=S(=O)([N-]S(=O)(=O)C(F)(F)F)C(F)(F)F + CCOC(=O)OCC
Details	mass density, 308.15 K [kg/m3]	mass density, 313.15 K [kg/m3]	mass density, 318.15 K [kg/m3]	mass density, 323.15 K [kg/m3]	mass density, 328.15 K [kg/m3]	viscosity, 313.15 K [mPa·s]	viscosity, 318.15 K [mPa·s]	viscosity, 323.15 K [mPa·s]	viscosity, 328.15 K [mPa·s]
x1 = 0.1025	1065.23	1059.8	1054.35	1048.88	1043.4	1.385	1.286	1.198	1.117
x1 = 0.2198	1157.03	1151.8	1146.57	1141.33	1136.07	2.614	2.391	2.194	2.025
x1 = 0.3178	1216.12	1210.99	1205.88	1200.77	1195.65	3.977	3.591	3.259	2.978
x1 = 0.4211	1265.74	1260.71	1255.69	1250.68	1245.68	6.414	5.815	5.216	4.71
x1 = 0.5268	1307.25	1302.3	1297.36	1292.44	1287.5	9.287	8.069	7.105	6.138
x1 = 0.622	1338.67	1333.78	1328.9	1324.02	1319.16	12.63	10.92	9.492	8.288
x1 = 0.7193	1366.17	1361.32	1356.48	1351.66	1346.84	16.35	14.18	12.28	10.66
x1 = 0.8139	1388.84	1384.01	1379.19	1374.39	1369.58	19.64	16.89	14.6	12.69
x1 = 0.9088	1409.18	1404.39	1399.6	1394.85	1390.1	23.69	20.05	17.26	15
x1 = 1	1426.43	1421.66	1416.91	1412.17	1407.45	27.56	23.33	19.97	17.41
